Legend:
[1] = tested on: lymphoma cell lines; test: 6-hour caspase activation assay (Caspase-Glo 3/7) in 33 lymphoma cell line panel; type: cell-based; conditions: for Emax: 6 hour compound incubation, cell lines highlighted in FIG. 1B, read-out: caspase maximum effect
Protocol: Method: 33 diffuse large B-cell (DLBCL) and Mantle cell (MCL) lymphoma cell lines were seeded onto 384 well plates pre-dosed with 10-point, ½ log titrations of AZD4573 or AZD5991, and incubated for 6 hours. Following the incubation cleaved caspase was measured using Caspase-Glo 3/7 (Promega) following the manufacturer's protocol. Data was analyzed using GeneData Screener and Spotfire.
Method: Cell lysates from 33 lymphoma cell lines were generated in parallel to evaluate protein expression of pro-survival Bcl2 family members. Cell lysates were normalized for protein concentration using the BCA Protein Assay Kit, and western blots were run according to standard protocols. A positive cell line control for expression of Bfl-1, TMD8, was utilized for normalization to other cell lines in the panel. AZD4573 and AZD5991 respective median and geomean caspase EC50's were calculated from cell lines clustered based on high and low Bfl-1 expression, respectively.

[2] = tested on: pSer2-RNAP2; test: Western blot of proximal CDK9 biomarker in OCILY10 cells treated with AZD4573; type: cell-based
Protocol: (§1) Method: The ABC-DLBCL cell line OCILY10 was treated for 6 h with a 9 pt, ½ log dose response of AZD4573 and cells were harvested for protein lysates. These cells were also treated with AZD4573 at 100 nM for varying timepoints out to 6 hours. At each timepoint (0, 0.5, 1, 2, 4, 6 hours) cells were harvested for either mRNA isolation, or protein lysates, respectively. mRNA was converted to cDNA and PCR sequence amplification was performed with Mcl1 and Bcl2a1 primers following standard protocols. Protein lysates were normalized for protein concentration using the BCA Protein Assay Kit, and run for western blots according to standard protocols. To ensure expected target engagement was achieved, the blots were probed for the proximal biomarker for CDK9 (pSer2-RNAPolII), along with Mcl-1 and Bfl-1. To gauge the time to induction of apoptosis, cleaved caspase-3 was assessed. A loading control (vinculin) was also utilized for normalization.

[3] = tested on: Mcl-1 and Bfl-1; test: Mcl-1 and Bfl-1 mRNA (PCR) and Bcl2 family protein (western blot) modulation in OCILY10 cells; type: cell-based
Protocol: as §1

[4] = tested on: OCILY10 cells; test: Cleaved caspase-3 induction over time in OCILY10 cells; type: cell-based; conditions: 100 nM AZD4573
Protocol: as §1

[5] = tested on: OCILY10 xenograft; test: OCILY10 ABC-DLBCL xenograft efficacy; type: in vivo, C.B.-17 SCID female mice
Protocol: (§2) Method: AZD4573 was formulated in dimethylacetamide (DMA)/polyethylene glycol 400 (PEG 400)/1% w/v Tween 80 solution 2/30/68 and dosed at 15 mg/kg, intraperitoneally (ip), BID with a 2 hour split on days 1 and 2 with a 5 day dose holiday.
(§3) AZD5991 was formulated for intravenous use in 30% HPBCD (hydroxy-propyl-beta-cyclodextrin) in water-for-injection adjusted to pH 9.0-9.5 up to a concentration of 20 mg/mL (based on parent form). AZD5991 was dosed at 60 mg/kg by tail-vain intravenous injection once weekly.
(§4) 5×10^6 OCILy10 tumor cells or 10×10^6 TMD8 tumor cells were injected subcutaneously in the right flank of C.B.-17 SCID female mice in a volume of 0.1 mL containing 50% matrigel.
(§5) Tumor volumes (measured by caliper), animal body weight, and tumor condition were recorded twice weekly for the duration of the studies. The tumor volume was calculated using the formula: length (mm)×width (mm)^2×0.52. For efficacy studies, growth inhibition from the start of treatment was assessed by comparison of the differences in tumor volume between control and treated groups. Dosing began when mean tumor size reached approximately 150-180 mm^3. CR=complete response.

[6] = tested on: TMD8 xenograft; test: TMD8 ABC-DLBCL xenograft efficacy; type: in vivo, C.B.-17 SCID female mice
Protocol: as §2, §3, §4, §5

[7] = tested on: OCILY10 and TMD8 cell lines; test: Caspase-Glo 3/7 activation after Bfl-1 siRNA knockdown; type: cell-based; conditions: 6 hours
Protocol: Method: OCILY10 and TMD8 cells were grown in logarithmic phase and plated in serum-free siRNA delivery media at 1×10^6 cells/mL in 12-well plates (Dharmacon B-005000). An siRNA SMARTpool targeting Bfl-1 or a scrambled negative control (NTC) were added to respective wells for 24 hours at 0.1 or 0.5 μM (Dharmacon Bcl2a1-597, NTC-D-001910-01). 2 mL of cell culture media was added to all transfected wells and transferred into a 6-well plate for an additional 48 hours. Transfected cells were collected to assess Bfl-1 protein knockdown and cleaved caspase-3 by western blot. Transfected cells were also seeded onto 384 well plates pre-dosed with an 8-point titration of AZD4573 or AZD5991 and incubated for 6 hours. The plates were measured for activation of cleaved caspase using Caspase-Glo 3/7 (Promega) following the manufacturer's protocol.

[8] = 15 mg/kg ip BID with 2 hour split on days 1 and 2, 5 day dose holiday

CC(=O)N[C@@H]1CCC[C@H](C(=O)Nc2cc(-c3cnn4c3CC(C)(C)C4)c(Cl)cn2)C1 [AZD4573, (1S,3R)-3-acetamido-N-(5-chloro-4-(5,5-dimethyl-5,6-dihydro-4H-pyrrolo [1,2-b]pyrazol-3-yl)pyridin-2-yl)cyclohexanecarboxamide]
Emax [1]: > 50% | geometric mean caspase EC50 difference between AZD5991 and AZD4573 ([1]; Bfl-1 expressing cell lines (n=8)): 22 fold | geometric mean caspase EC50 difference between AZD5991 and AZD4573 ([1]; cell lines with no expression of Bfl-1 (n=25)): 4 fold | Expression of pSer2-RNAP2 inhibited ([2]; 100 nM AZD4573, 30 minutes after dosing): > 80% | pSer2-RNAP2 inhibition ([2]; 6 h, serial dilutions of AZD4573): inhibited in a dose-dependent manner | time by which Mcl1 and Bfl1 mRNA expression were reduced to equivalent levels ([3]; 100 nM AZD4573): ≤ 2 h | time of reductions in Mcl-1 and Bfl-1 protein ([3]; 100 nM AZD4573): 4 h | expression of longer lived proteins Bcl2, Bcl-xL and Bcl-W ([3]; after 6 h treatment with AZD4573): relatively unchanged | reductions in Mcl-1 and Bfl-1 protein ([3]; at concentrations that inhibited pSer2-RNAP2): Equipotent reductions | time at which cleaved caspase was detected [4]: 6 h | TGI [5, 8]: 198% | anti-tumor response ([5]; OCILY10 xenograft, AZD4573 treatment): complete tumor regressions | TGI [6, 8]: 184% | anti-tumor response ([6]; TMD8 xenograft, AZD4573 treatment): complete tumor regressions

Cc1c2c(nn1C)CSCc1cc(n(C)n1)CSc1cc(c3ccccc3c1)OCCCc1c(C(=O)O)n(C)c3c-2c(Cl)ccc13 (atropisomer, axis not shown) [AZD5991]
Emax [1]: < 50% | maximum level of apoptosis (cleaved caspase) ([7]; OCILY10 and TMD8, Bfl-1 siRNA knockdown cells): over 90% | maximum level of apoptosis (cleaved caspase) ([7]; average of OCILY10 and TMD8, without Bfl-1 knockdown): 45%
